# Read-outs that look alike come from different tables or passages of the source.
# Assays:
# Type in all cases: biochemical
# Fyn(h) = biological target: T1, Fyn(h) (Homo sapiens, UniProt P06241); test: Kinase panel
# T1 construct: purchased Millipore KinaseProfiler
# NEK11(h) = biological target: T2, NEK11(h) (Homo sapiens, UniProt Q8NG66); test: Kinase panel
# T2 construct: purchased Millipore KinaseProfiler
# T2 sequence (Q8NG66 1-645): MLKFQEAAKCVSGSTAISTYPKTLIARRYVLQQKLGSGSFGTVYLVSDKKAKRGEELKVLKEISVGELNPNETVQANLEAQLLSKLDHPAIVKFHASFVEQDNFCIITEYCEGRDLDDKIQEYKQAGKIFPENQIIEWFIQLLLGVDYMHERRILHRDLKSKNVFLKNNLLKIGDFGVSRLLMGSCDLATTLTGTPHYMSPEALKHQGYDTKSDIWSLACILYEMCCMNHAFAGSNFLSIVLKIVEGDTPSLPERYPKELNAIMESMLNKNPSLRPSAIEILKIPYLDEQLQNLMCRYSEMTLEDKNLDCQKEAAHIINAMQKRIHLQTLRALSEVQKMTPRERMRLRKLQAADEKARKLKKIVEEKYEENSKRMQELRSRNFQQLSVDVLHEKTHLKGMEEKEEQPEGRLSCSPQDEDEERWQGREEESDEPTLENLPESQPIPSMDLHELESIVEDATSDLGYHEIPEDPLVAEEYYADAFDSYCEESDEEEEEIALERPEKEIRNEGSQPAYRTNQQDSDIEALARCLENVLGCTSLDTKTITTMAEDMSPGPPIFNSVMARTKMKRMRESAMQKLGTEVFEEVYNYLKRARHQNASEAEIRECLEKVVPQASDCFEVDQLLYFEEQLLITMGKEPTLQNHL
# FGFR4(h) = biological target: T3, FGFR4(h) (Homo sapiens, UniProt P22455); test: Kinase panel
# T3 construct: purchased Millipore KinaseProfiler
# T3 sequence (P22455 22-802): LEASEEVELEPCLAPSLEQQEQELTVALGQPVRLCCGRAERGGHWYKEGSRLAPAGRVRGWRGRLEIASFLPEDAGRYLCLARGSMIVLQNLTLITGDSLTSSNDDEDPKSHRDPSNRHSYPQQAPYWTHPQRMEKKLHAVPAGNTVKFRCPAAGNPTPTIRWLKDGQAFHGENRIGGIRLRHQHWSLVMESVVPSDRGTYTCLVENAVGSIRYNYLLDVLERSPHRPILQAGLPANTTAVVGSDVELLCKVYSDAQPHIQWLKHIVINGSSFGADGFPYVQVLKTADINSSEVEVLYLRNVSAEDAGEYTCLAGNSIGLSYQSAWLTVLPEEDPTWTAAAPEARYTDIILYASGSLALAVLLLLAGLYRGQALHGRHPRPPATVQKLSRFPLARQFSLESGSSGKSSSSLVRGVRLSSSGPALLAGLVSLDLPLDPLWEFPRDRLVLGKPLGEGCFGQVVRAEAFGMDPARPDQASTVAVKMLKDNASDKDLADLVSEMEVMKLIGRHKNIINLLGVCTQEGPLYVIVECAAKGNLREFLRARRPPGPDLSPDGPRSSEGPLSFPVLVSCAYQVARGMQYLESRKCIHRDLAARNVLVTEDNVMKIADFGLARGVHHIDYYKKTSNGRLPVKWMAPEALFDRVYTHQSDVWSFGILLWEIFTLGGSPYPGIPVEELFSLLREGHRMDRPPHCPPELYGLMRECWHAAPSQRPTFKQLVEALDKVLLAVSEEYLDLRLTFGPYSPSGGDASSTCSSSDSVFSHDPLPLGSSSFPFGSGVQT
# FGFR2(h) = biological target: T4, FGFR2(h) (Homo sapiens, UniProt P21802); test: Kinase panel
# T4 construct: purchased Millipore KinaseProfiler
# TLK2(h) = biological target: T5, TLK2(h) (Homo sapiens, UniProt Q86UE8); test: Kinase panel
# T5 construct: purchased Millipore KinaseProfiler
# T5 sequence (Q86UE8 whole entry): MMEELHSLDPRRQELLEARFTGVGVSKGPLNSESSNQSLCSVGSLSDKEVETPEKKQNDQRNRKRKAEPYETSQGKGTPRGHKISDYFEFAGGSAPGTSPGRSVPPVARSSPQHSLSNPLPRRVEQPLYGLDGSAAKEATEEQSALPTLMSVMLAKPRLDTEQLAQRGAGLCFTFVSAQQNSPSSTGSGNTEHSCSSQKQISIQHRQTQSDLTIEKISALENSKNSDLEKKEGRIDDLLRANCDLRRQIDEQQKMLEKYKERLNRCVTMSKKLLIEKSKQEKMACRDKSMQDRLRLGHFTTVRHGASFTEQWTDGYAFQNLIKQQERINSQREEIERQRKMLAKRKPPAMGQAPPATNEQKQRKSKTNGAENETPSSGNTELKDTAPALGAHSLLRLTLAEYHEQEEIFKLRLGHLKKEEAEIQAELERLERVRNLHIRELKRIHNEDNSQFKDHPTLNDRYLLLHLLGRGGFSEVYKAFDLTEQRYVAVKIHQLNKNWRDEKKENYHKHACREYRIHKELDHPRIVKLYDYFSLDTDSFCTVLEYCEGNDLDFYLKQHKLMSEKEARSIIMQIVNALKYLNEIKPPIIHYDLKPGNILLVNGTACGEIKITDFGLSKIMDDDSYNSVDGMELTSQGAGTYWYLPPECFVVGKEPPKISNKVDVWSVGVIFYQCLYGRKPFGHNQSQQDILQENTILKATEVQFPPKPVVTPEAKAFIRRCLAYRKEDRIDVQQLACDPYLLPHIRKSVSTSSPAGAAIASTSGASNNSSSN
# PKCθ(h) = biological target: T6, PKCθ(h) (Homo sapiens, UniProt Q04759); test: Kinase panel
# T6 construct: purchased Millipore KinaseProfiler
# T6 sequence (Q04759 whole entry): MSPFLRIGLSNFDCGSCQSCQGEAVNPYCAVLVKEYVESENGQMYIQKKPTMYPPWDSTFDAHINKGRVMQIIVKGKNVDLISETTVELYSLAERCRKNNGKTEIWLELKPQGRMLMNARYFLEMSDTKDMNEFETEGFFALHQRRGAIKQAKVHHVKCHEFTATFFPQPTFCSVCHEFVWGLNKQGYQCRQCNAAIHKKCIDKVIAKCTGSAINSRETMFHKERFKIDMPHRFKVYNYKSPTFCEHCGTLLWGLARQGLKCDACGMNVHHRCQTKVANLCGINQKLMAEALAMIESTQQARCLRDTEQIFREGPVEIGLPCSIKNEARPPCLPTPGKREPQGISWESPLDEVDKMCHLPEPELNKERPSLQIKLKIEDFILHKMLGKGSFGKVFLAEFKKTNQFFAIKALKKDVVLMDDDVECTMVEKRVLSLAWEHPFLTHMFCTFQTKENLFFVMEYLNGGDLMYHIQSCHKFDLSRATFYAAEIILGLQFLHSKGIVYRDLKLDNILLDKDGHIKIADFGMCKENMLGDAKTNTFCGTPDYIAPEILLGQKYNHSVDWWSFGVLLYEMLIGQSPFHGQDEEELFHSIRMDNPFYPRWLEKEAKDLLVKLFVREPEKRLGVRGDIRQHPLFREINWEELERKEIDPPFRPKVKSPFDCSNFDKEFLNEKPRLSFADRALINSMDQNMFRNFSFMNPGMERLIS
# PKCγ(h) = biological target: T7, PKCγ(h) (Homo sapiens, UniProt P05129); test: Kinase panel
# T7 construct: purchased Millipore KinaseProfiler
# cKit(V560G)(h) = biological target: T8, cKit(V560G)(h) (Homo sapiens, UniProt P10721, V560G); test: Kinase panel
# T8 construct: purchased Millipore KinaseProfiler
# JAK3(h) = biological target: T9, JAK3(h) (Homo sapiens, UniProt P52333); test: Kinase panel
# T9 construct: purchased Millipore KinaseProfiler
# T9 sequence (P52333 1-1124): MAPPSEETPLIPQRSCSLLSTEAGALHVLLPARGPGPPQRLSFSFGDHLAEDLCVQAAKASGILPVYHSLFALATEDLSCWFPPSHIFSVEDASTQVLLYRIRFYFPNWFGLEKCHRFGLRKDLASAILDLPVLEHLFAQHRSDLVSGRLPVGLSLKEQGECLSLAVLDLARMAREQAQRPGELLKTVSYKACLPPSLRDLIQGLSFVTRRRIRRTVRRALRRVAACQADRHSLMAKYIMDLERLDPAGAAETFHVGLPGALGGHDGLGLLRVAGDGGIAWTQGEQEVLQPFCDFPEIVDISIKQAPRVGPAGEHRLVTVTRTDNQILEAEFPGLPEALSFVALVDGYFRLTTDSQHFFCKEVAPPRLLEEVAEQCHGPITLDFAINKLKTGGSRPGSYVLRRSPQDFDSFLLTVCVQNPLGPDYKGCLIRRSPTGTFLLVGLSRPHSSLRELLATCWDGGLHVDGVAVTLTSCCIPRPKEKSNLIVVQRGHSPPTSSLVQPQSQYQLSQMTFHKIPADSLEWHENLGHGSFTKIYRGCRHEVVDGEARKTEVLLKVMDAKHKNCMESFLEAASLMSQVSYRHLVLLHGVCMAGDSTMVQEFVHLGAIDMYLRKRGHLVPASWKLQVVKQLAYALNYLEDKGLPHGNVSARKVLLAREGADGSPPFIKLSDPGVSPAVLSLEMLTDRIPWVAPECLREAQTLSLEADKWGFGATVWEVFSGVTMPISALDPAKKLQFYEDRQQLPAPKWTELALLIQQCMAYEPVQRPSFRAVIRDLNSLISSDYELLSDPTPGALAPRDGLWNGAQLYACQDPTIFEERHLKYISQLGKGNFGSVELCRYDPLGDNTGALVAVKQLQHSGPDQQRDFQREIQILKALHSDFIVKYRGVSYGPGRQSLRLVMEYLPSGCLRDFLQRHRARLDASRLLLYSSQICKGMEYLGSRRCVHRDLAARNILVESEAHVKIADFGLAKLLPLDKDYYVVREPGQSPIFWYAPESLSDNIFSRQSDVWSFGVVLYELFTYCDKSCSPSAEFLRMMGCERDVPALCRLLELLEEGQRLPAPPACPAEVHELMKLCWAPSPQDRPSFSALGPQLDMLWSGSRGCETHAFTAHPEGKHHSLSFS
# Blk(m) = biological target: T10, Blk(m) (Mus musculus, UniProt P16277); test: Kinase panel
# T10 construct: purchased Millipore KinaseProfiler
# PKA = PKA (Homo sapiens, UniProt P17612); test: Kinase IC50 assay
# MEK1(h) = biological target: T11, MEK1(h) (Homo sapiens, UniProt Q02750); test: Kinase panel
# T11 construct: purchased Millipore KinaseProfiler
# PDGFRα(D842V)(h) = biological target: T12, PDGFRα(D842V)(h) (Homo sapiens, UniProt P16234, D842V); test: Kinase panel
# T12 construct: purchased Millipore KinaseProfiler
# T12 sequence (P16234 24-1089 D842V): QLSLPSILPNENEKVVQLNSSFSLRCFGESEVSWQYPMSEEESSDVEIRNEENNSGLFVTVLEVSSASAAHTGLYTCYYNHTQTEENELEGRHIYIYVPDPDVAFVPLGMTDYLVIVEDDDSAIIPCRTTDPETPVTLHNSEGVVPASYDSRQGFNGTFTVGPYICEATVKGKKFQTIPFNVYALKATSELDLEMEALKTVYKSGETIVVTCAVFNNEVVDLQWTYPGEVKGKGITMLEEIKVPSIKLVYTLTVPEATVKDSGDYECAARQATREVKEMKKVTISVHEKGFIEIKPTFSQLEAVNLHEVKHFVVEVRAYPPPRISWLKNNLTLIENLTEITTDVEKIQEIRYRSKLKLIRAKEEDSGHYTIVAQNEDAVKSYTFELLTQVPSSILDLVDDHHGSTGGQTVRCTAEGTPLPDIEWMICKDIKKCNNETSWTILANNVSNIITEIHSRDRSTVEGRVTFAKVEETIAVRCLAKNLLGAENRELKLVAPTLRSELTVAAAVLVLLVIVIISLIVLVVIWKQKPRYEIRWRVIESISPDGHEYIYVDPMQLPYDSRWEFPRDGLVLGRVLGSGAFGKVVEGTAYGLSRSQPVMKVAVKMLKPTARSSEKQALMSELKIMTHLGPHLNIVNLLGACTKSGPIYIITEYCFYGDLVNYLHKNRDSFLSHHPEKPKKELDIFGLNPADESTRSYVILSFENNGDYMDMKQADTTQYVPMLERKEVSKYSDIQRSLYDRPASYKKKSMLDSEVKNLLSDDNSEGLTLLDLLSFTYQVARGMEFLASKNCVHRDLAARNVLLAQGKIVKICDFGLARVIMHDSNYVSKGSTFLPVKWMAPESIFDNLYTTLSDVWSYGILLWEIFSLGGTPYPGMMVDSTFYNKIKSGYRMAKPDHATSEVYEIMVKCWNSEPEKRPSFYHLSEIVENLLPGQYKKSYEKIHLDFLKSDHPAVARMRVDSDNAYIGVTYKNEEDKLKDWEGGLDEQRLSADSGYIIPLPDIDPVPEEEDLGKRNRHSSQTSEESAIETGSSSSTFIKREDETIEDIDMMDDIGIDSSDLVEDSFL
# JAK2(h) = biological target: T13, JAK2(h) (Homo sapiens, UniProt O60674); test: Kinase panel
# T13 construct: purchased Millipore KinaseProfiler
# T13 sequence (O60674 whole entry): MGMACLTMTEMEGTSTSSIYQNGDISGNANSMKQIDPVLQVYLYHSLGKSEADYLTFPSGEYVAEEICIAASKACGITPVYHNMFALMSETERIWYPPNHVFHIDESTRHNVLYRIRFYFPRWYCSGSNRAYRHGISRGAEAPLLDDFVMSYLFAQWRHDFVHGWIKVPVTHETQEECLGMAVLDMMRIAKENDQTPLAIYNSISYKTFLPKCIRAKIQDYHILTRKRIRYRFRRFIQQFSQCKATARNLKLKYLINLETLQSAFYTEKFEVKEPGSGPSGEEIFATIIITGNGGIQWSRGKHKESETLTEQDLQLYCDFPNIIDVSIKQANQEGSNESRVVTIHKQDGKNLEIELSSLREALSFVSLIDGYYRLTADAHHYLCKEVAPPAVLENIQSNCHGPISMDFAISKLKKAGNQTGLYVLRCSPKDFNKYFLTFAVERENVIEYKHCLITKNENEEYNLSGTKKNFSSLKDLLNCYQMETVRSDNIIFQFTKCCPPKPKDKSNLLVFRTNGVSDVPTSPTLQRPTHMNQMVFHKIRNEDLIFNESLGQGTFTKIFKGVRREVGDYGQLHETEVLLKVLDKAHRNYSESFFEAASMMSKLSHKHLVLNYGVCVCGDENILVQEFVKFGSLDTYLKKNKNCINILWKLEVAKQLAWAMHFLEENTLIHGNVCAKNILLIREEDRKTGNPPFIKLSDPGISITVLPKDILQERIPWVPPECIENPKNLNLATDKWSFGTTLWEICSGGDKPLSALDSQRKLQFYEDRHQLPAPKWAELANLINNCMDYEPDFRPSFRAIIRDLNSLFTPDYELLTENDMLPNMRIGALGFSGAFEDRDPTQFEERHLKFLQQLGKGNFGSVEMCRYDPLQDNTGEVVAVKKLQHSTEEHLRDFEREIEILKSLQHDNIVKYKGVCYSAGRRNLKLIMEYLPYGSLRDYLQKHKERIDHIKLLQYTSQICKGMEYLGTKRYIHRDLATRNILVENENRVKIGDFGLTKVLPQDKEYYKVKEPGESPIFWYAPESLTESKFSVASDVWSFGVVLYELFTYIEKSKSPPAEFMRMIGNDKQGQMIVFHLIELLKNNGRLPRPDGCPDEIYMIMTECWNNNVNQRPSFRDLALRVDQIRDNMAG
# T1 sequence (P06241 whole entry): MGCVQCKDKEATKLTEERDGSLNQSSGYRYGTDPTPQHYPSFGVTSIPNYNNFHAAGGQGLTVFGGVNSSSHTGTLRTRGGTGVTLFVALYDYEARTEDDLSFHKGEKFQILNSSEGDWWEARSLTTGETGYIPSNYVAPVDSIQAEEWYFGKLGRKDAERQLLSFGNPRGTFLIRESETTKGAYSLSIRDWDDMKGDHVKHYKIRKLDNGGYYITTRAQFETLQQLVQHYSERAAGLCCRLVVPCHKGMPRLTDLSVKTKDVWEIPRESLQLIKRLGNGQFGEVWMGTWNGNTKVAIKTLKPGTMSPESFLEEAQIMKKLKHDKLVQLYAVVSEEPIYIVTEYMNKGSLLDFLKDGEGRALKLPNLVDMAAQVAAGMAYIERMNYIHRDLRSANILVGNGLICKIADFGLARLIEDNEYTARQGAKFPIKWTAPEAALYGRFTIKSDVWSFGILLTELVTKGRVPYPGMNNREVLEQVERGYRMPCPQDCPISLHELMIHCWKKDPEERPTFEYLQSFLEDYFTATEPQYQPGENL
compound,measurement,setting,value
Cn1ncc(Cl)c1-c1cc(C(=O)N[C@H](CN)Cc2cccc(F)c2)sc1Cl [GSK2110183],inhibition at 0.5 µM,Fyn(h),-3%
same,inhibition at 10 µM,Fyn(h),12%
same,inhibition at 0.5 µM,NEK11(h),-13%
same,inhibition at 10 µM,NEK11(h),-11%
same,inhibition at 0.5 µM,FGFR4(h),0%
same,inhibition at 10 µM,FGFR4(h),19%
same,inhibition at 0.5 µM,FGFR2(h),0%
same,inhibition at 10 µM,FGFR2(h),-2%
same,inhibition at 0.5 µM,TLK2(h),-2%
same,inhibition at 10 µM,TLK2(h),-1%
same,inhibition at 0.5 µM,PKCθ(h),62%
same,inhibition at 10 µM,PKCθ(h),94%
same,inhibition at 0.5 µM,PKCγ(h),39%
same,inhibition at 10 µM,PKCγ(h),90%
same,inhibition at 0.5 µM,cKit(V560G)(h),-6%
same,inhibition at 10 µM,cKit(V560G)(h),4%
same,inhibition at 0.5 µM,JAK3(h),6%
same,inhibition at 10 µM,JAK3(h),-3%
same,inhibition at 0.5 µM,Blk(m),-12%
same,inhibition at 10 µM,Blk(m),9%
same,IC50,PKA,1.3 nM
same,inhibition at 0.5 µM,MEK1(h),-1%
same,inhibition at 10 µM,MEK1(h),24%
same,inhibition at 0.5 µM,PDGFRα(D842V)(h),-16%
same,inhibition at 10 µM,PDGFRα(D842V)(h),-4%
same,inhibition at 0.5 µM,JAK2(h),-31%
same,inhibition at 10 µM,JAK2(h),-55%
Cn1ncc(Cl)c1-c1cc(C(=O)N[C@H](CN)Cc2ccc(F)c(F)c2)oc1Cl [GSK2141795],inhibition at 0.5 µM,"Fyn(h); 0.5 µM, read-out: % Inhibition",-8%
same,inhibition at 10 µM,"Fyn(h); 10 µM, read-out: % Inhibition",10%
same,inhibition at 0.5 µM,"NEK11(h); 0.5 µM, read-out: % Inhibition",-11%
same,inhibition at 10 µM,"NEK11(h); 10 µM, read-out: % Inhibition",-2%
same,inhibition at 0.5 µM,"FGFR4(h); 0.5 µM, read-out: % Inhibition",24%
same,inhibition at 10 µM,"FGFR4(h); 10 µM, read-out: % Inhibition",19%
same,inhibition at 0.5 µM,"FGFR2(h); 0.5 µM, read-out: % Inhibition",-8%
same,inhibition at 10 µM,"FGFR2(h); 10 µM, read-out: % Inhibition",2%
same,inhibition at 0.5 µM,"TLK2(h); 0.5 µM, read-out: % Inhibition",-11%
same,inhibition at 10 µM,"TLK2(h); 10 µM, read-out: % Inhibition",10%
same,inhibition at 0.5 µM,"PKCθ(h); 0.5 µM, read-out: % Inhibition",82%
same,inhibition at 10 µM,"PKCθ(h); 10 µM, read-out: % Inhibition",94%
same,inhibition at 0.5 µM,"PKCγ(h); 0.5 µM, read-out: % Inhibition",63%
same,inhibition at 10 µM,"PKCγ(h); 10 µM, read-out: % Inhibition",95%
same,inhibition at 0.5 µM,"cKit(V560G)(h); 0.5 µM, read-out: % Inhibition",-25%
same,inhibition at 10 µM,"cKit(V560G)(h); 10 µM, read-out: % Inhibition",16%
same,inhibition at 0.5 µM,"JAK3(h); 0.5 µM, read-out: % Inhibition",-6%
same,inhibition at 10 µM,"JAK3(h); 10 µM, read-out: % Inhibition",-14%
same,inhibition at 0.5 µM,"Blk(m); 0.5 µM, read-out: % Inhibition",-35%
same,inhibition at 10 µM,"Blk(m); 10 µM, read-out: % Inhibition",8%
same,IC50,PKA,2 nM
same,inhibition at 0.5 µM,"MEK1(h); 0.5 µM, read-out: % Inhibition",0%
same,inhibition at 10 µM,"MEK1(h); 10 µM, read-out: % Inhibition",26%
same,inhibition at 0.5 µM,"PDGFRα(D842V)(h); 0.5 µM, read-out: % Inhibition",-5%
same,inhibition at 10 µM,"PDGFRα(D842V)(h); 10 µM, read-out: % Inhibition",15%
same,inhibition at 0.5 µM,"JAK2(h); 0.5 µM, read-out: % Inhibition",-13%
same,inhibition at 10 µM,"JAK2(h); 10 µM, read-out: % Inhibition",-27%

# From publication PMC4076210, “Discovery of Novel AKT Inhibitors with Enhanced Anti-Tumor Effects in Combination with the MEK Inhibitor” (PLoS ONE, 2014)
